US10111434B2, “Binary fungicidal mixtures” (BAYER CROPSCIENCE AG, priority 2012, dated 2018)

What was measured:
Alternaria solani = assay: Alternaria test (tomatoes)/preventive; type: in vivo; settings: preventive spray, evaluated 3 days after inoculation
Protocol: Alternaria Test (Tomatoes)/Preventive
(§1) To produce a suitable preparation of active compound, 1 part by weight of active compound is mixed with the stated amounts of solvent and emulsifier, and the concentrate is diluted with water to the desired concentration.
(§2) To test for preventive activity, young plants are sprayed with the preparation of active compound at the stated rate of application. After the spray coating has dried on, the plants are inoculated with an aqueous spore suspension of Alternaria solani. The plants are then placed in an incubation cabinet at approximately 20° C. and a relative atmospheric humidity of 100%.
The test is evaluated 3 days after the inoculation. 0% means an efficacy which corresponds to that of the untreated control while an efficacy of 100% means that no disease is observed.

Phakopsora pachyrhizi = assay: Phakopsora test (soybeans)/preventive; type: in vivo; settings: preventive spray, evaluated 7 days after inoculation
Protocol: Phakopsora Test (Soybeans)/Preventive
as §1
as §2, with “the causal agent of soybean rust (Phakopsora pachyrhizi) and stay for 24 h without light” for “Alternaria solani. The plants are then placed”, “24°” for “20°”, “95%.” for “100%.”
The plants remain in the incubation cabinet at approximately 24° C. and a relative atmospheric humidity of approximately 80% and a day/night interval of 12 h.
The test is evaluated 7 days after the inoculation. 0% means an efficacy which corresponds to that of the untreated control, while an efficacy of 100% means that no disease is observed.

Compound | Efficacy in % found (Alternaria solani; 25 ppm a.i.) [%] | Efficacy in % found (Phakopsora pachyrhizi; 25 ppm a.i.) [%] | Efficacy in % found (Alternaria solani; 2.5 ppm a.i.) [%] | Efficacy in % found (Phakopsora pachyrhizi; 2.5 ppm a.i.) [%]
Cn1c(=O)c2sc3c(=O)n(C)c(=O)c3sc2c1=O [2.1, 2,6-dimethyl-1H,5H-[1,4]dithiino[2,3-c:5,6-c′]dipyrrole-1,3,5,7(2H,6H)-tetrone] | 39 | 8 | – | –
CC1CC(C)(C)c2cccc(NC(=O)c3cn(C)nc3C(F)F)c21 (stereo not drawn) [(I-1), 3-(difluoromethyl)-1-methyl-N-(1,1,3-trimethyl-2,3-dihydro-1H-inden-4-yl)-1H-pyrazole-4-carboxamide] | – | – | 36 | 68
propineb [2.2] | 33 | 0 | – | –
